According to patent US20250383339A1, “DESIGN AND APPLICATION OF NOVEL LIGAND-INDUCED SPLIT-PROTEIN SYSTEMS” (ARIZONA BOARD OF REGENTS ON BEHALF OF THE UNIVERSITY OF …, priority 2022, published 2025):
“Also recorded” adds a separate entry of the source.

What was measured:
Bcl-xL 209 R139A = target: T1, Bcl-xL 209 R139A (Homo sapiens, UniProt Q07817, R139A); assay: split-luciferase complementation assay of split Bcl-xL 209 R139A in HEK293T cells; assay type: cell-based; details: split-luciferase signal
T1 construct: expressed in transfected cells; host or cells: HEK293T
Text: (§1) To design split Bcl-xL, a suitable readout was required to measure successful ligand-dependent reassembly. A split-luciferase complementation assay was used, which was originally identified by rapamycin-induced complementation of FKBP and FRB. The split protein constructs were designed such that split-firefly luciferase-dependent luminescence would only be generated upon dimerization of N-Bcl-xL and C-Bcl-xL fragments […] (FIG. 2A). The split-protein constructs were created for each of the Bcl-xL split sites (FIG. 2B) and tested by transient transfection into HEK293T cells with the addition of either a Bcl-xL ligand or DMSO.
Low passage (≤25) cells were seeded onto T-75 (Fisher) flasks at 1E6 cells per mL and grown for 24 hours in complete media. […] Cells were transfected for ˜16 h, then were trypsinized and quantified. […] Cell lysis was clarified via centrifugation, and 50 μL of clarified lysate was plated per well on a white U-bottom luminescence plate. 80 μL of L-GLO was added to each well, and the plate was incubated at room temperature for 25-40 minutes before luminescence was read on a Centro XS3 LB960 (Berthold Technologies) microplate luminometer. Separately, clarified lysate was quantified using a Micro-BCA kit (Pierce), and luminescence was normalized to RLU per microgram of total protein using Microsoft Excel. […]

[1] = test system: Bcl-xL WT and Bcl-xL R139A; assay: split-luciferase assay, Bcl-xL 209 R139A side-by-side with wild-type parent; assay type: cell-based, human; details: α3-α4 split site, 50 nM ligand, 5 ng of each FLuc construct (FIG. 3)
Protocol: Low passage (≤25) cells were seeded onto T-75 (Fisher) flasks at 1E6 cells per mL and grown for 24 hours in complete media. Transient transfections were performed using PolyJet (SignaGen). 96-well culture plates were coated with 50 μL/well of 50 μg/mL solution of poly-D-lysine (MilliPore) and incubated at 4C overnight. Cells were transfected for ˜16 h, then were trypsinized and quantified. Cells were plated onto coated 96-well plates at 1E4 cells/well in DMEM supplemented with 0.5% v/v FBS. Treatment was dissolved in DMSO and added to a final DMSO concentration of 0.05% by volume. Cells were grown in treatment media for 24 h before being lysed with an in-house detergent-based buffer. Cell lysis was clarified via centrifugation, and 50 μL of clarified lysate was plated per well on a white U-bottom luminescence plate. 80 μL of L-GLO was added to each well, and the plate was incubated at room temperature for 25-40 minutes before luminescence was read on a Centro XS3 LB960 (Berthold Technologies) microplate luminometer. Separately, clarified lysate was quantified using a Micro-BCA kit (Pierce), and luminescence was normalized to RLU per microgram of total protein using Microsoft Excel. All data presented were plotted using Kaleidagraph (Synergy) 3.5.

Bcl-xL = Bcl-xL (Homo sapiens, UniProt Q07817); details: in the literature; cited from earlier work
[2] = test system: split-Src controlled by split Bcl-xL; assay: anti-phosphotyrosine western blot of split-Src controlled by split Bcl-xL in HEK293T cells; assay type: cell-based, human; details: for global tyrosine phosphorylation: N-Bcl-xL 1-112 / C-Bcl-XL WT 113-209 split-Src, 10 µM ligand vs DMSO
Protocol: The most ligand-responsive fragments, N-Bcl-xL 1-112 and C-Bcl-XL WT 113-209, were cloned into existing full-length split-Src constructs. N-Bcl-xL was attached via a 25-residue linker to the N-terminus of N-Src. C-Bcl-XL WT was attached via a 25-residue linker to C-Src Y530F (FIG. 4A). Each split-kinase system was tested in HEK293T cells via transient transfection and treated with either DMSO or 10 µM of Bcl-xL ligands A-1155463, ABT-263, or ABT-737. […] More importantly, this novel CID system can likely be used in combination with the three existing CID systems to generate additional layers of control in cells for controlling pathways with externally added small molecules. For example, a split kinase and a corresponding split phosphatase may be used in conjunction with a split target protein (e.g., as described herein) to examine any given phosphorylation pathway in a cell. In some embodiments, the split target protein may be either upstream or downstream of a phosphorylation cascade (e.g., the split kinase). The aforementioned system would allow precise signaling studies to be undertaken by titration of two or more ligands (e.g., small molecules; e.g., one ligand for each split protein in the system).

[3] = test system: split-Src controlled by the ABI/PYL CID system; assay: anti-phosphotyrosine western blot of split-Src controlled by the ABI/PYL CID system; assay type: cell-based; details: for phosphorylation / kinase activity of ABI/PYL split-Src with CID alone: abscisic acid CID alone
Protocol: It was hypothesized that there might be off-target kinase inhibition by ABT-263, which is not present in the other ligands tested. To interrogate this potential off-target kinase inhibition, an orthogonal split-Src construct design was employed with ABI and PYL domains and the CID, abscisic acid. The split-Src was tested as fragments without CID, fragments with CID, and fragments with CID plus ABT-263.

[4] = target: T2, C-Bcl-XL WT 113-209 split-firefly-luciferase fusion (human, UniProt Q07817 113-209); assay: split-luciferase complementation in HEK293T cells, reassembly induced by ABT-263
T2 construct: not shown: split firefly luciferase half (NFluc or CFluc) with any linker
Text: Fold change is indicated as a measure of small-molecule dependence of the luminescence.
as §1

T1 sequence (Q07817 113-209 R139A, one chain of several): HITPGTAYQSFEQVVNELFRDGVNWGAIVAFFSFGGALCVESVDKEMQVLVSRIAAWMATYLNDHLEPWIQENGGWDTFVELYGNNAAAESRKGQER
T2 sequence (Q07817 113-209): as the sequence (Q07817 113-209 R139A, one chain of several) above, with A27R counted along it
Sequence of Bcl-xL (Q07817 whole entry): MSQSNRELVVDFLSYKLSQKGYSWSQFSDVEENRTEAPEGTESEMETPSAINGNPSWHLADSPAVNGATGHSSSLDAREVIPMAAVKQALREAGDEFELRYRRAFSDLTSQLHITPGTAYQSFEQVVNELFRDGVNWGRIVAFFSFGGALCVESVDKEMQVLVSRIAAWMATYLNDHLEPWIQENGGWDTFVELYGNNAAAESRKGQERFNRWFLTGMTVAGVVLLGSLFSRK

CN(C)CC#Cc1ccc(OCCCc2sc(N3CCc4cccc(C(=O)Nc5nc6ccccc6s5)c4C3)nc2C(=O)O)c(F)c1 [A-1155463]
ligand-induced reassembly (induced dimerization) of Bcl-xL 209 R139A (Bcl-xL 209 R139A): did not induce significant reassembly | split-luciferase signal, difference between Bcl-xL WT and R139A in ligand-induced reassembly [1]: preferential binding for wild-type C-Bcl-XL 113-209 over the R139A mutant | binding affinity to Bcl-xL (Bcl-xL): sub-nanomolar | global tyrosine phosphorylation [2]: significant increases in global tyrosine phosphorylation

CC1(C)CCC(c2ccc(Cl)cc2)=C(CN2CCN(c3ccc(C(=O)NS(=O)(=O)c4ccc(N[C@H](CCN5CCOCC5)CSc5ccccc5)c(S(=O)(=O)C(F)(F)F)c4)cc3)CC2)C1 [ABT-263]
phosphorylation / kinase turn-on of ABI/PYL split-Src on addition of ABT-263 with abscisic acid ([3]; fragments with abscisic acid CID plus ABT-263): lesser amount of kinase turn-on; also recorded: phosphorylation is slightly decreased | split-luciferase signal, difference between Bcl-xL WT and R139A in ligand-induced reassembly [1]: respond similarly; also recorded: no significant difference | global tyrosine phosphorylation [2]: significant increases in global tyrosine phosphorylation | intensity of induced phosphorylation compared to A-1155463 and ABT-737 ([2]; split-Src controlled by split Bcl-xL): lower intensity of induced phosphorylation

CN(C)CC[C@H](CSc1ccccc1)Nc1ccc(S(=O)(=O)NC(=O)c2ccc(N3CCN(Cc4ccccc4-c4ccc(Cl)cc4)CC3)cc2)cc1[N+](=O)[O-] [ABT-737]
global tyrosine phosphorylation [2]: significant increases in global tyrosine phosphorylation

CC1=CC(=O)CC(C)(C)[C@@]1(O)/C=C/C(C)=C\C(=O)O [abscisic acid]
phosphorylation / kinase activity of ABI/PYL split-Src with CID alone [3]: strong phosphorylation | phosphorylation / kinase activity of ABI/PYL split-Src with CID alone ([3]; listed as ABA): turns the kinase activity on

B1: N-Bcl-xL 1-112 split-firefly-luciferase fusion (α3-α4 split site) (other)
chain: MEDAKNIKKGPAPFYPLEDGTAGEQLHKAMKRYALVPGTIAFTDAHIEVNITYAEYFEMSVRLAEAMKRYGLNTNHRIVVCSENSLQFFMPVLGALFIGVAVAPANDIYNERELLNSMNISQPTVVFVSKKGLQKILNVQKKLPIIQKIIIMDSKTDYQGFQSMYTFVTSHLPPGFNEYDFVPESFDRDKTIALIMNSSGSTGLPKGVALPHRTACVRFSHARDPIFGNQIIPDTAILSVVPFHHGFGMFTTLGYLICGFRVVLMYRFEEELFLRSLQDYKIQSALLVPTLFSFFAKSTLIDKYDLSNLHEIASGGAPLSKEVGEAVAKRFHLPGIRQGYGLTETTSAILITPEGDDKPGAVGKVVPFFEAKVVDLDTGKTLGVNQRGELCVRGPMIMSGYVNNPEATNALIDKDGCGRGGSGGGGSGGGGSVDGGSGGQLDIMSQSNRELVVDFLSYKLSQKGYSWSQFSDVEENRTEAPEGTESEMETPSAINGNPSWHLADSPAVNGATGHSSSLDAREVIPMAAVKQALREAGDEFELRYRRAFSDLTSQL
notes: Expressed by transient transfection in HEK293T cells; also called N-Bcl-xL (aa 1-112)
binding result [4]: binds
